Among the data in ChEMBL document CHEMBL4351004, “New 3-tetrazolyl-β-carbolines and β-carboline-3-carboxylates with anti-cancer activity” (2019) are GI50 values, retold here.

Type in all cases: functional
Assay [1] concerns U-251. Nature of the assay: Antiproliferative activity against human U251 cells assessed as growth inhibition after 48 hrs by sulforhodamine B assay. The note with it: U-251, 48 h. Background: The SRB assay estimates cell density from bound dye.
The nature of assay [2]: Antiproliferative activity against human UACC61 cells assessed as growth inhibition after 48 hrs by sulforhodamine B assay.
Assay [3] concerns MCF7. The experiment in a line: Antiproliferative activity against human MCF7 cells assessed as growth inhibition after 48 hrs by sulforhodamine B assay. The conditions noted are these: MCF7, 48 h.
The subject of assay [4] is NCI/ADR-RES. The experiment in a line: Antiproliferative activity against human NCI-ADR-RES cells assessed as growth inhibition after 48 hrs by sulforhodamine B assay.
Assay [5] deals with 786-0. The experiment in a line: Antiproliferative activity against human 786-0 cells assessed as growth inhibition after 48 hrs by sulforhodamine B assay. The note with it: 786-0, 48 h.
Assay [6] relates to NCI-H460. The experiment in a line: Antiproliferative activity against human NCI-H460 cells assessed as growth inhibition after 48 hrs by sulforhodamine B assay. The conditions noted are these: NCI-H460, 48 h.
The subject of assay [7] is PC-3. Nature of the assay: Antiproliferative activity against human PC3 cells assessed as growth inhibition after 48 hrs by sulforhodamine B assay. The note with it: PC-3, 48 h.
For assay [8], the system named is OVCAR-3. The experiment in a line: Antiproliferative activity against human OVCAR3 cells assessed as growth inhibition after 48 hrs by sulforhodamine B assay. The note with it: OVCAR-3, 48 h.
The test system of assay [9] is HT-29. Nature of the assay: Antiproliferative activity against human HT-29 cells assessed as growth inhibition after 48 hrs by sulforhodamine B assay. The note with it: HT-29, 48 h.
Assay [10] deals with K562. Nature of the assay: Antiproliferative activity against human K562 cells assessed as growth inhibition after 48 hrs by sulforhodamine B assay. The note with it: K562, 48 h.

As for `Fc1ccc(-c2nc(-c3nnnn3Cc3ccccc3)cc3c2[nH]c2ccccc23)cc1`, the GI50 (commonly the concentration giving 50% growth inhibition) in assay [1] was 1.38 µM; in assay [2] it was above 100 µM; in assay [3] it was 1.04 µM; in assay [4], 2.07 µM; in [5], 0.69 µM; in assay [6] it was 20.2 µM. Besides, the GI50 was found to be 6.11 µM in assay [7], 0.57 µM in [8], 6.51 µM in [9] and 0.69 µM in assay [10].

On to `CCOC(=O)c1cc2c([nH]c3ccc(OC)cc32)c(-c2ccc(OC)cc2)n1`, for which the GI50 in [1] is 70.8 µM; in assay [2], above 100 µM; in [3] it was above 100 µM; in assay [4] it was above 100 µM; in assay [5] it was 20.9 µM; in assay [6] it was 74.8 µM. In addition, the GI50 in assay [7], in assay [8], in assay [9] and in [10] was above 100 µM throughout.

For `COC(=O)c1cc2c([nH]c3ccccc32)c(-c2cccc([N+](=O)[O-])c2)n1`, the GI50 in assay [2] was 7.02 µM; in [3], above 100 µM; in assay [4], above 100 µM; in assay [5] it was 31.7 µM; in [6], above 100 µM; in [7], above 100 µM. Also, the results for the GI50 in assay [8], in assay [9] and in [10] were above 100 µM, above 100 µM and 3.05 µM, respectively.

Turning to `Fc1ccc(-c2nc(-c3nnn[nH]3)cc3c2[nH]c2ccccc23)cc1`, the GI50 is 8.17 µM in assay [1]; 63.3 µM in assay [2]; 10.1 µM in [3]; 36.6 µM in assay [4]; 64.5 µM in assay [5]; 14.8 µM in [6]. Moreover, the GI50 turned out to be 71.8 µM in [7], 0.27 µM in [8], 25.6 µM in assay [9] and 10.7 µM in assay [10].

With `CCOC(=O)c1cc2c([nH]c3ccc(OC)cc32)c(-c2ccccc2Cl)n1`, the GI50 in [1] was 22.1 µM; in [2] it was 7.71 µM; in [3], above 100 µM; in [4], above 100 µM; in assay [5], 12.2 µM; in [6], 65.6 µM. Besides, the GI50 in [7], in assay [8], in assay [9] and in [10] was above 100 µM in each case.

Consider `c1ccc(Cn2nnnc2-c2cc3c([nH]c4ccccc43)c(-c3ccccc3)n2)cc1`, for which the GI50 in assay [1] was determined as 63.5 µM; in [2], 37 µM; in [3], 4.4 µM; in assay [4], 71 µM; in assay [5], 70.6 µM; in assay [6], 31.9 µM. For the same compound, the GI50 in [7] was above 100 µM; in assay [8], above 100 µM; in assay [9], above 100 µM; in assay [10] it was 27.4 µM.

In the case of `CCOC(=O)c1cc2c([nH]c3ccc(OC)cc32)c(-c2ccc(O)cc2)n1`, the GI50 is 7.26 µM in [1]; above 100 µM in assay [2]; 6.57 µM in assay [3]; 6.54 µM in assay [4]; 7.51 µM in assay [5]; 6.95 µM in assay [6]. The GI50 in assay [7] was 3.28 µM; in assay [8] it was 0.66 µM; in assay [9] it was 7.74 µM; in assay [10], 4.36 µM.

Regarding `CCOC(=O)c1cc2c([nH]c3ccc(C)cc32)c(-c2ccc(OC)cc2)n1`, the GI50 in [1] came out at 7.07 µM; in assay [2], 23.3 µM; in assay [3], 32.2 µM; in assay [4] it was 41.6 µM; in assay [5], 4.27 µM; in assay [6], 11.6 µM. For the same compound, the GI50 in [7] was above 100 µM; in assay [8], 0.61 µM; in assay [9], 80.1 µM; in assay [10] it was 25.1 µM.

For `COC(=O)c1cc2c([nH]c3ccccc32)c(-c2ccccc2)n1`, the GI50 in assay [2] was 5.45 µM; in assay [3], above 100 µM; in [4], above 100 µM; in assay [5] it was above 100 µM; in assay [6], above 100 µM; in assay [7], above 100 µM. For the same compound, the GI50 in [8], in assay [9] and in [10] was above 100 µM each time.

As for `COC(=O)c1cc2c([nH]c3ccccc32)c(-c2ccccc2Cl)n1`, the GI50 in assay [2] was 5.76 µM; in [3], 36.4 µM; in assay [4], 27.6 µM; in assay [5], 42.4 µM; in assay [6], 26.8 µM; in assay [7], 22.3 µM. Besides, the GI50 in assay [8] came out at 21.6 µM; in assay [9] it was 25.3 µM; in assay [10], 13.5 µM.

In the case of `COc1ccc(-c2nc(-c3nnnn3Cc3ccccc3)cc3c2[nH]c2ccccc23)cc1`, the GI50 in [1] was found to be 3.82 µM; in assay [2], 88.1 µM; in assay [3], 1.32 µM; in assay [4], 2.7 µM; in assay [5], 2.17 µM; in assay [6] it was 1.59 µM. The GI50 was determined as 5.73 µM in assay [7], 1.62 µM in [8], 18.3 µM in assay [9] and 7.14 µM in assay [10].

With `COC(=O)c1cc2c([nH]c3ccccc32)c(-c2ccc(N(C)C)cc2)n1`, the GI50 in assay [2] came to 3.61 µM; in [3], 36.8 µM; in [4] it was 11.6 µM; in [5], 20.4 µM; in assay [6] it was 15.3 µM; in [7], 9.56 µM. The GI50 came out at 28.4 µM in assay [8], 34 µM in assay [9] and 21.8 µM in assay [10].

For the compound `COc1cccc2c1C(=O)c1c(O)c3c(c(O)c1C2=O)C[C@@](O)(C(=O)CO)C[C@@H]3O[C@H]1C[C@H](N)[C@H](O)[C@H](C)O1` [DOXORUBICIN], the GI50 in [1] was determined as 0.21 µM; in assay [2], 0.047 µM; in [3] it was 0.073 µM; in assay [4], 1.44 µM; in [5], 0.15 µM; in [6], 0.37 µM. Besides, the GI50 in assay [7] came to 0.74 µM; in assay [8], 0.0087 µM; in [9], 2.58 µM; in assay [10], 1.11 µM.

Consider `COC(=O)c1cc2c([nH]c3ccccc32)c(-c2ccc(OC)cc2)n1`, for which the GI50 in [2] was 2.61 µM; in [3] it was 52.7 µM; in assay [4], 1.11 µM; in [5] it was 32.7 µM; in assay [6], 0.38 µM; in [7], 10.2 µM. Moreover, the GI50 came to 39.4 µM in [8], 24.8 µM in [9] and 0.04 µM in assay [10].

In the case of `CCOC(=O)c1cc2c([nH]c3ccc(C)cc32)c(-c2ccccc2)n1`, the GI50 in [1] is 7.44 µM; in [2] it was 28.2 µM; in assay [3], 5.08 µM; in assay [4] it was 2.66 µM; in assay [5], 10.8 µM; in assay [6], 6.96 µM. Further, the GI50 in assay [7] came to 20.6 µM; in [8] it was 0.6 µM; in assay [9] it was 7.14 µM; in assay [10], 1.24 µM.

With `CCOC(=O)c1cc2c([nH]c3ccc(OC)cc32)c(-c2ccccc2)n1`, the GI50 in assay [1] is above 100 µM; in assay [2], above 100 µM; in assay [3], 79.6 µM; in [4], above 100 µM; in assay [5], above 100 µM; in assay [6], above 100 µM. Besides, the GI50 in assay [7], in assay [8], in assay [9] and in assay [10] was above 100 µM throughout.

As for `CCOC(=O)c1cc2c([nH]c3ccc(OC)cc32)c(-c2ccc(N(C)C)cc2)n1`, the GI50 in assay [1] was 0.95 µM; in assay [2] it was 0.28 µM; in [3], above 100 µM; in assay [4], 4.29 µM; in [5], 1.4 µM; in assay [6], 12.7 µM. The GI50 is 7.74 µM in [7], above 100 µM in assay [8], above 100 µM in assay [9] and above 100 µM in assay [10].

Take `COC(=O)c1cc2c([nH]c3ccccc32)c(-c2ccc(O)cc2)n1`: the GI50 in assay [2] worked out at 12 µM; in assay [3], 27.5 µM; in assay [4], 25.7 µM; in assay [5] it was 29.5 µM; in assay [6], 28.5 µM; in assay [7], 20.7 µM. In addition, the concentration for 50% growth inhibition (GI50) is 21.1 µM in assay [8], 25.1 µM in assay [9] and above 100 µM in assay [10].

As for `CCOC(=O)c1cc2c([nH]c3ccc(OC)cc32)c(-c2cccc([N+](=O)[O-])c2)n1`, the GI50 in [1] is above 100 µM; in assay [2], 19.7 µM; in assay [3] it was above 100 µM; in assay [4], above 100 µM; in [5] it was above 100 µM; in [6] it was above 100 µM. Further, the GI50 in assay [7], in assay [8], in assay [9] and in [10] was above 100 µM each time.
